Experimental findings from patent US11214578B2, “Urea/carbamates FAAH MAGL or dual FAAH/MAGL inhibitors and uses thereof” (Northeastern University, priority 2014, dated 2022) are described below.

Data set [1] has as its target T1, ΔTM rat FAAH (Rattus norvegicus, UniProt P97612).
T1 construct: Preparation of Transmembrane Domain-Deleted Rat FAAH (ΔTM rFAAH); made in house; host or cells: E. coli
T1 sequence (P97612 30-579 limits assumed): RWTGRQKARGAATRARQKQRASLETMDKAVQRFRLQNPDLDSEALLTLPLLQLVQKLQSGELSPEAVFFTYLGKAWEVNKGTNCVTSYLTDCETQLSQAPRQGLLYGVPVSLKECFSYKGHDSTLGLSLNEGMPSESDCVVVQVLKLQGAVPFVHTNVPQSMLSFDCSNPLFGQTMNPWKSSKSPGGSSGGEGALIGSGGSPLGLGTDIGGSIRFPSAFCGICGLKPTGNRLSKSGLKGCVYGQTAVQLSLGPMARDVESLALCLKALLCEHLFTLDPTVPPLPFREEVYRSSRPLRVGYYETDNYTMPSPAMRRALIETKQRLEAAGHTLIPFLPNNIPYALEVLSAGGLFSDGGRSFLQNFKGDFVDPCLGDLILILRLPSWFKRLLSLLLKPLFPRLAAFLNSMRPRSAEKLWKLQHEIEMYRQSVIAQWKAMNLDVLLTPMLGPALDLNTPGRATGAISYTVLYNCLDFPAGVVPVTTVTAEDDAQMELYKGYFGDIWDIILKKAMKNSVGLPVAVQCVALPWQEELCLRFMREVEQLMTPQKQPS
The experiment in a line: Fluorescent assay protocol for ΔTM rat FAAH (AAMCA substrate). In kind it is biochemical. To be noted: 15 min preincubation, read-out: IC50 rFAAH. Summed up:
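ΔTM rat FAAH (15 μg) was pre-incubated 15 min at 25° C with compound (screening at 1, 10 and 100 μM), then reacted with the fluorigenic substrate AAMCA. Percent inhibition came from fluorescence at 3 h (linear kinetics) relative to no-inhibitor controls, in triplicate.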

The target of data set [2] is T2, Human FAAH (MBPΔTMhFAAH) (Homo sapiens, UniProt O00519).
T2 construct: made in house; host or cells: E. coli (pMALcE4 vector)
T2 sequence (O00519 30-579 limits assumed): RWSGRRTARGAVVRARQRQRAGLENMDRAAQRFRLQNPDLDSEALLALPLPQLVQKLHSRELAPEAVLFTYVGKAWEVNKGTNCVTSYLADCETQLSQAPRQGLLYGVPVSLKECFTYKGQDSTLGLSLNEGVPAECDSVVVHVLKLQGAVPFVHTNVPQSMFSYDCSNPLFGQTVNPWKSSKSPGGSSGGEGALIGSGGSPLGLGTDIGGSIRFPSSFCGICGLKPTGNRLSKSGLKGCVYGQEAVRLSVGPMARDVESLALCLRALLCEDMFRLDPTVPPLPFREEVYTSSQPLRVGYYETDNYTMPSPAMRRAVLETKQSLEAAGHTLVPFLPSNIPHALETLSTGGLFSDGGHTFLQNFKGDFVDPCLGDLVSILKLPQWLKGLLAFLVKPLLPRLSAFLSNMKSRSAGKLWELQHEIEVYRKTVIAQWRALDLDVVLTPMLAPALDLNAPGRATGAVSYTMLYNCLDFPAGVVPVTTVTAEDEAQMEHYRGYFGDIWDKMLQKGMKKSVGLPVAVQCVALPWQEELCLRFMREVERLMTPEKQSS
The experiment in a line: Fluorescent assay protocol for hFAAH. The format is biochemical. To be noted: human FAAH (MBP fusion, ΔTM), procedure as for rFAAH. Summed up: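 MBP-fused ΔTM human FAAH from E. coli, pre-incubated 15 min at 25 °C with compound in 50 mM HEPES, 1 mM EDTA, 0.1% BSA, pH 7.4 (DMSO below 8%). Substrate AAMCA 20 μM (2×Km); fluorescence (ex 360/em 460) at 3 h gave % inhibition vs uninhibited control, triplicate, IC50 fitted.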

The target of data set [3] is T3, Rat MAGL (rMAGL) (Rattus norvegicus, UniProt Q8R431).
T3 construct: made in house; host or cells: E. coli
T3 sequence (Q8R431 1-303): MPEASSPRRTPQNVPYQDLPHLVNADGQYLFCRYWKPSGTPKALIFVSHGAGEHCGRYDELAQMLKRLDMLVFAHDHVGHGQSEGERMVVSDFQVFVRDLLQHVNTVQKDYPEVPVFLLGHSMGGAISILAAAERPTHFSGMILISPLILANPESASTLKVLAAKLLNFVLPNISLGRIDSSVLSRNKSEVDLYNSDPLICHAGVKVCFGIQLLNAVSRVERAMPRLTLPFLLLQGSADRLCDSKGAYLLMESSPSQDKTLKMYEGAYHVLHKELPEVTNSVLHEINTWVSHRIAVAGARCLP
In words: Fluorescent assay protocol for rMAGL. In kind it is biochemical. To be noted: recombinant rat MAGL, procedure as for hMAGL; read-out: IC50 rMAGL. Summed up:
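Rat MAGL run as for the human enzyme: AHMMCE substrate hydrolysis to fluorescent coumarin followed at 25° C. for 120 min, read every 15 min at 360/460 nm.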

For data set [4], the target named is T4, Human MAGL (hMAGL) (Homo sapiens, UniProt Q99685).
T4 construct: hexahistidine; made in house; host or cells: E. coli
T4 sequence (Q99685 1-303): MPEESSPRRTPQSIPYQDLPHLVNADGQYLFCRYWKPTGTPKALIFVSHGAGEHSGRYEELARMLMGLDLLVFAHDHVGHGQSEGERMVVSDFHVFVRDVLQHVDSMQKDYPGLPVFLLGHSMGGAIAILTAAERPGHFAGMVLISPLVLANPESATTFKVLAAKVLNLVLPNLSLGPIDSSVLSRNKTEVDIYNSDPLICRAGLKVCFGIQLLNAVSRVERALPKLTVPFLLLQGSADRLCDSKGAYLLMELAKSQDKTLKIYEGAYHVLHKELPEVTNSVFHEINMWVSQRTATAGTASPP
The experiment in a line: Fluorescent assay protocol for hMAGL (AHMMCE substrate). In kind it is biochemical. To be noted: recombinant human MAGL, AHMMCE substrate, 15 min preincubation; read-out: IC50 hMAGL. Summed up:
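Hydrolysis of AHMMCE by human MAGL was monitored at 25°C for 120 min, with fluorescence at 360/460 nm recorded every 15 min and converted to 4-methylcoumarin using external standards. IC50 values were derived from triplicate wells at each inhibitor concentration.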

The nature of data set [5]: Blood brain barrier (BBB) permeability studies. To be noted: brain and plasma; blood-brain distribution, in vivo; read-out: brain/plasma ratio. An excerpt:
Novel compounds were studied for their abilities to cross the blood brain barrier based on procedures adapted from Cluny, et al (2010), British journal of pharmacology 161: 629; Rahn, et al (2011) Pharmacology biochemistry, and behavior 98: 493; Wood et al (2013) Life sciences 92: 482.

The test system of data set [6] is LiCl-induced anticipatory nausea in rats. In words: Anticipatory nausea studies (LiCl-paired context, gapes). In kind it is in vivo, rat. To be noted: for amelioration of LiCl-induced anticipatory nausea: 20 mg/Kg; for Mean number of gapes elicited by a LiCl-paired context: 20 mg/Kg pretreatment, vehicle 22 gapes. An excerpt:
Novel compounds were studied for their ability to ameliorate LiCl-induced anticipatory nausea in rats following the procedures described in Limebeer, C. L. et al Psychopharmacology (2014) 231:603-612. […] Mean number of gapes elicited by a LiCl-paired context in an anticipatory nausea test following pretreatment with a MAGL inhibitor compound 46 and dual FAAH/MAGL inhibitor 52 were 8 and 3 respectively, compared to animals treated with vehicle which show 22 gapes.

Data set [7] has as its system human prostate cancer PC-3M cells. In words: Xenograft model of advanced prostate cancer. The format is in vivo, mouse. To be noted: nude mice, PC-3M xenograft, 20 mg/kg daily i.p. for 21 days. On the procedure:
Compounds were studied for their abilities to retard tumor growth in mouse xenograft model expressing aggressive human prostate cancer PC-3M cells. Tumors were established in immunodeficient nude mice (Taconic Farms) according to standard protocol and mice were divided in two groups. Mouse in each group was injected intraperitoneally (i.p.) with vehicle or compounds (20 mg/kg daily) for 21 days. Tumor sizes were measured with callipers every 3 days.

With `C[C@H]1CN(C(=O)Nc2cccc(-c3cccc(C(N)=O)c3)c2)CCN1Cc1ccc2ccccc2n1` [Example 1, (S)—N-(3′-carbamoyl-[1,1′-biphenyl]-3-yl)-3-methyl-4-(quinolin-2-ylmethyl) piperazine-1-carboxamide], the IC50 in data set [1] was 10 to 100 nM; in data set [2], 10 to 100 nM; in data set [3], > 1000 nM; in data set [4], > 1000 nM. For the same compound, the Kp in data set [5] is 0.03.

Regarding `NC(=O)c1cccc(-c2cccc(NC(=O)N3CCC(c4ccccc4)CC3)c2)c1` [Example 7, N-(3′-carbamoyl-[1,1′-biphenyl]-3-yl)-4-phenylpiperidine-1-carboxamide], the IC50 is 10 to 100 nM in data set [1], 10 to 100 nM in data set [2], > 1000 nM in data set [3] and > 1000 nM in data set [4]. The Kp in data set [5] was determined as 0.17.

Take `N#Cc1cccc(OC(=O)N2CCC(C(c3ccccc3)c3ccccc3)CC2)c1` [Example 46, 3-Cyanophenyl 4-benzhydrylpiperidine-1-carboxylate]: the IC50 in data set [1] lay in the range of 10 to 100 nM. For the same compound, the IC50 in data set [2] lay within 10 to 100 nM. In data set [6], the “amelioration of LiCl-induced anticipatory nausea” value is recorded as “ameliorated anticipatory nausea” and the “Mean number of gapes elicited by a LiCl-paired context” value came out at 8. For the same compound, the “reduction in tumor sizes” value in data set [7] (compared to vehicle) is reported as 43%. For the same compound, in data set [7] (vehicle 185 mm^3), the tumor sizes is 105 mm^3.

For `N#Cc1cccc(OC(=O)N2CCC(Cc3ccccc3)CC2)c1` [Example 52, 3-cyanophenyl 4-benzylpiperidine-1-carboxylate], the half-inhibitory concentration (IC50) in data set [2] lay within 10 to 100 nM. Besides, the Kp in data set [5] is 0.71. In data set [6], the “amelioration of LiCl-induced anticipatory nausea” value was “ameliorated anticipatory nausea” and the “Mean number of gapes elicited by a LiCl-paired context” value is given as 3.

For `N#Cc1cccc(-c2cccc(NC(=O)N3C[C@@H]4C[C@H]3CN4Cc3cccc(-c4ccccc4)c3)c2)c1` [Example 94, (1S,4S)-5-([1,1′-biphenyl]-3-ylmethyl)-N-(3′-cyano-[1,1′-biphenyl]-3-yl)-2,5-diazabicyclo[2.2.1]heptane-2-carboxamide], the IC50 was 110 to 1000 nM in data set [1], 110 to 1000 nM in data set [2], > 1000 nM in data set [3] and > 1000 nM in data set [4].

With `O=C(N1C[C@@H]2C[C@H]1CN2c1ccccn1)n1cnc(-c2ccccc2)c1` [Example 96, (4-phenyl-1H-imidazol-1-yl)((1S,4S)-5-(pyridin-2-yl)-2,5-diazabicyclo[2.2.1]heptan-2-yl)methanone], the half-maximal inhibitory concentration (IC50) in data set [1] was 10 to 100 nM; in data set [2] it was 10 to 100 nM; in data set [3], > 1000 nM; in data set [4], > 1000 nM.

On to `O=C(N1C[C@@H]2C[C@H]1CN2c1cccc(F)c1)n1cnc(-c2ccccc2)c1` [Example 97, ((1 S,4S)-5-(3-fluorophenyl)-2,5-diazabicyclo[2.2.1]heptan-2-yl)(4-phenyl-1H-imidazol-1-yl)methanone], for which the IC50 was 110 to 1000 nM in data set [1], 110 to 1000 nM in data set [2], > 1000 nM in data set [3] and > 1000 nM in data set [4].

For the compound `O=C(N1C[C@@H]2C[C@H]1CN2Cc1cccc(-c2ccccc2)c1)n1cnc(-c2ccccc2)c1` [Example 99, ((1S,4S)-5-([1,1′-biphenyl]-3-ylmethyl)-2,5-diazabicyclo[2.2.1]heptan-2-yl)(4-phenyl-1H-imidazol-1-yl)methanone], the IC50 is 10 to 100 nM in data set [1], 110 to 1000 nM in data set [2], > 1000 nM in data set [3] and > 1000 nM in data set [4].

As for `O=C(N1C[C@@H]2C[C@H]1CN2Cc1cccc(-c2ccccc2)c1)n1cnc(Br)c1` [Example 100, ((1S,4S)-5-([1,1′-biphenyl]-3-ylmethyl)-2,5-diazabicyclo[2.2.1]heptan-2-yl)(4-bromo-1H-imidazol-1-yl)methanone], the IC50 in data set [1] was 10 to 100 nM; in data set [2], 10 to 100 nM; in data set [3] it was > 1000 nM; in data set [4], > 1000 nM.

For `O=C(Oc1ccccc1)N1C[C@@H]2C[C@H]1CN2Cc1cccc(-c2ccccc2)c1` [Example 101, phenyl (1S,4S)-5-([1,1′-biphenyl]-3-ylmethyl)-2,5-diazabicyclo[2.2.1]heptane-2-carboxylate], the 50% inhibitory concentration (IC50) was 10 to 100 nM in data set [1], 10 to 100 nM in data set [2], > 1000 nM in data set [3] and > 1000 nM in data set [4].

The IC50 is the point on the concentration scale where inhibition reaches its midpoint.
